Data: patent publication US5238838A (Degussa Aktiengesellschaft, priority 1991, dated 1993)
Values joined by “and” are separate entries in the source; they are usually repeats but may differ in a detail not shown here. Equal entries are not always repeated. “Also recorded” adds a separate entry of the source. Where two headings read alike, the source gives them in different places.

Columns and labels:
strain DSM 6230 = assay: Growth of strain DSM 6230 on the test substances (OD660); assay type: cell-based; settings: for OD660: 5 g/l of the substance in minimum medium with 1.0 g/l yeast extract, 36 h, 30° C.; for Growth of the strain on the substance (in words): strain DSM 6230
Description: 1367 strains were isolated during the screening program. These strains were incubated in 100 ml Erlenmeyer flasks containing 20 ml of the particular enrichment medium in a rotary agitator at 30° C. and 120 rpms. The optical density at 660 nm was taken as an indication for the cell growth.
(§1) In this test, various substances were examined for their induction action. At the same time, the growth on these compounds was followed. The medium used was a minimum medium with 1.0 g/l instead of 0.5 g/l yeast extract, to which 5 g/l of the substance to be tested were added in each instance. The culture without inductor contained 5 g/l yeast extract. All tests were carried out with 20 ml shaking cultures which were incubated 36 h at 30° C. and 120 rpms in a rotating [round]shaking machine. These cultures were inoculated with 1% of an initial culture of strain DSM 6230. L-carnitine amide was used as substrate for the enzyme test.
(§2) At the same time, the growth of the bacteria was followed in these carnitine amide concentrations. The culture conditions corresponded to those in example 3.

L-carnitine amidase [1] = assay: Test for the induction of L-carnitine amidase; assay type: cell-based, strain DSM 6230; settings: for Activity (mU/mg) / Activity (mU/ml): 5 g/l of the substance as inductor, 36 h, L-carnitine amide as substrate
Description: as §1, §2

L-carnitine amidase [2] = assay: Substrate spectrum of L-carnitine amidase; assay type: biochemical, strain DSM 6230; settings: substrate 50 mM; 30° C.; 100 mM potassium phosphate buffer pH 8
Description: The enzyme test was carried out at 30° C. in 100 mM potassium phosphate buffer pH 8. The substrate concentration was 50 mM.

L-carnitine amidase [3] = tested on: L-carnitine amidase;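 further: additives put into the enzyme mixture before substrate, reaction then initiated by substrate addition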
Description: In order to test the influence of various additives on the enzyme activity, they were added to the test batches without substrate in a final concentration of 1 mM and 10 mM in each instance. The reaction batches were first incubated for 45 min. at 30° C. before the reaction was started by adding substrate solution.

[4] = carnitine amide concentration 0.5 g/l
[5] = carnitine amide concentration 1.0 g/l
[6] = carnitine amide concentration 2.0 g/l
[7] = carnitine amide concentration 3.0 g/l
[8] = carnitine amide concentration 5.0 g/l
[9] = carnitine amide concentration 10.0 g/l
[10] = carnitine amide concentration 15.0 g/l
[11] = carnitine amide concentration 20.0 g/l
[12] = carnitine amide concentration 25.0 g/l
[13] = additive 1 mM, 45 min. preincubation at 30° C.
[14] = additive 10 mM, 45 min. preincubation at 30° C.

SMILES | OD660 (strain DSM 6230) | Activity (mU/mg) (L-carnitine amidase [1]) | Activity (mU/ml) (L-carnitine amidase [1]) | Enzyme activity (%) (L-carnitine amidase [3]; [13]) | Enzyme activity (%) (L-carnitine amidase [3]; [14]) | also measured
C[N+](C)(C)CC(O)CC(N)=O (racemic) [DL-carnitine amide] | 2.7 | 1673 | 8867 |  |  | OD660 nm (strain DSM 6230; [4]): 1.1; OD660 nm (strain DSM 6230; [5]): 1.3; OD660 nm (strain DSM 6230; [6]): 1.7; OD660 nm (strain DSM 6230; [7]): 2.0; OD660 nm (strain DSM 6230; [8]): 2.8; OD660 nm (strain DSM 6230; [9]): 3.9; OD660 nm (strain DSM 6230; [10]): 3.7; OD660 nm (strain DSM 6230; [11]): 3.6; OD660 nm (strain DSM 6230; [12]): 3.5; Growth of the strain on the substance (in words) (strain DSM 6230): Good growth; amidase activity (U/ml) (L-carnitine amidase [1]; [4]): 0.7 U/ml; amidase activity (U/ml) (L-carnitine amidase [1]; [5]): 2.4 U/ml; amidase activity (U/ml) (L-carnitine amidase [1]; [6]): 6.1 U/ml; amidase activity (U/ml) (L-carnitine amidase [1]; [7]): 7.3 U/ml; amidase activity (U/ml) (L-carnitine amidase [1]; [8]): 8.9 U/ml; amidase activity (U/ml) (L-carnitine amidase [1]; [9]): 8.6 U/ml; amidase activity (U/ml) (L-carnitine amidase [1]; [10]): 7.3 U/ml; amidase activity (U/ml) (L-carnitine amidase [1]; [11]): 7.1 U/ml; amidase activity (U/ml) (L-carnitine amidase [1]; [12]): 6.7 U/ml
C[N+](C)(C)CC(O)CC#N (racemic) [DL-carnitine nitrile] | 0.8 | 88 | 221 |  |  | 
C[N+](C)(C)CC(O)CC(=O)[O-] (racemic) [DL-carnitine] | 2.5 | 1255 | 5773 |  |  | Growth of the strain on the substance (in words) (strain DSM 6230): Good growth
C[C@@H](O)[C@H](N)C(N)=O [1-Thr-NH2] |  |  |  |  |  | Rel. activity (%) (L-carnitine amidase [2]): 0%
OCCS [2-mercaptoethanol] |  |  |  | 100 | 101 | 
CC=O [Acetaldehyde] |  |  |  | 83 | 81 | 
CC(N)=O [Acetamide] | 1.0 | 0 | 0 |  |  | Rel. activity (%) (L-carnitine amidase [2]): 0%
C=CC(N)=O [Acrylamide] | 0.8 | 136 | 170 |  |  | Rel. activity (%) (L-carnitine amidase [2]): 0%
O=[N+]([O-])[O-].[Ag+] [AgNO3] |  |  |  | 65 |  | 
[Ba+2].[Cl-].[Cl-] [BaCl2] |  |  |  | 102 | 105 | 
NC(=O)c1ccccc1 [Benzamide] | 0.3 | 0 | 0 |  |  | Rel. activity (%) (L-carnitine amidase [2]): 0%
CCCC(N)=O [Butyramide] | 0.9 | 18 | 54 |  |  | Rel. activity (%) (L-carnitine amidase [2]): 0%
[Ca+2].[Cl-].[Cl-] [CaCl2] |  |  |  | 103 | 90 | 
[Cl-].[Cl-].[Co+2] [CoCl2] |  |  |  | 90 | 76 | Reduction of the enzyme activity (in words) (L-carnitine amidase [3]; concentration of 10 mM): reduction of the enzyme activity
[Cl][Cu][Cl] [CuCl2] |  |  |  | 70 | 54 | 
N[C@@H]1CON=C1O [Cycloserine] |  |  |  | 96 | 97 | 
NC(=O)[C@H](N)Cc1ccccc1 [D-Phe-NH2] |  |  |  |  |  | Rel. activity (%) (L-carnitine amidase [2]): 0%
CC(C)C[C@@H](N)C(N)=O [D-leucine amide] | 0.8 | 81 | 170 |  |  | 
C[N+](C)(C)CC(=O)CC(=O)[O-] [Dehydrocarnitine] | 0.8 | 279 | 837 |  |  | Growth of the strain on the substance (in words) (strain DSM 6230): can not be metabolized or are metabolized very poorly; Induction of L-carnitine amidase (in words) (L-carnitine amidase [1]; strain DSM 6230): induced; also recorded: Inductors; also recorded: induce the enzyme
CCC(CC)(C(=O)O)C(=O)O [Diethyl malonic acid] |  |  |  | 92 | 68 | Reduction of the enzyme activity (in words) (L-carnitine amidase [3]; concentration of 10 mM): reduction of the enzyme activity
O=C(O)c1cc(SSc2ccc([N+](=O)[O-])c(C(=O)O)c2)ccc1[N+](=O)[O-] [Dinitrodithiodibenzoic acid] |  |  |  | 34 |  | 
CCN1C(=O)C=CC1=O [Ethyl maleinimide] |  |  |  | 100 |  | Enzyme activity (%) (L-carnitine amidase [3]): 99%
[Cl][Fe][Cl] [FeCl2] |  |  |  | 86 | 57 | 
[Cl][Fe]([Cl])[Cl] [FeCl3] |  |  |  | 87 | 46 | 
NCC(=O)NCC(N)=O [Gly-Gly-NH2] |  |  |  |  |  | Rel. activity (%) (L-carnitine amidase [2]): 0%
C[N+](C)(C)CC(=O)[O-] [Glycine betaine] | 2.9 | 33 | 183 |  |  | Growth of the strain on the substance (in words) (strain DSM 6230): Good growth
[Cl][Hg][Cl] [HnCl2] |  |  |  | < 1 |  | 
O=C(O)CI [Iodoacetate] |  |  |  |  |  | Enzyme activity (%) (L-carnitine amidase [3]): 97% and 72%; Reduction of the enzyme activity (in words) (L-carnitine amidase [3]): reduction of the enzyme activity
C[C@H](N)C(N)=O [L-Ala-NH2] |  |  |  |  |  | Rel. activity (%) (L-carnitine amidase [2]): 0%
